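Exposure lasted 48 hours, with cells grown in 96-well plates and compounds tested at five concentrations. Here, GI50 denotes the concentration required for 50% inhibition of growth. The concentration for full growth arrest is given as TGI.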

Test [1] deals with DMS 114 small cell lung. Put plainly: NCI anticancer screen, dose series, 48 h.
Test [2] has as its system KM20L2 colon. Put plainly: NCI anticancer screen, dose series, 48 h.

For the molecule `CCC(C(=O)O)c1ccc(OC)cc1` (centres undefined), the TGI in test [1] and in test [2] was over 100 µM throughout.
Consider `C=C(C)C(=O)OC1C/C(CO)=C\C(O)C/C(C)=C/C2OC(=O)C(=C)C21` (centres undefined), for which the TGI in test [1] amounted to 60.8 µM; in test [2], 97.3 µM.
Turning to `CCCCC#C[I+]c1ccccc1`, the TGI in test [2] turned out to be 35.9 µM.
Consider `CC(C)CCS(=O)(=O)OCCCCOS(=O)(=O)CCC(C)C`, for which the TGI in test [1] and in test [2] was over 100 µM throughout.
For the molecule `O=C(NC(=O)c1ccccc1[N+](=O)[O-])Nc1ccc(Oc2ncc(Br)cn2)c(Cl)c1`, the GI50 in test [1] was 0.00331 µM. The TGI in test [2] is 0.059 µM.

(Values after PubChem BioAssay (NCI).)
